In patent US7776902B2, “Nitrooxyderivatives of cyclooxygenase-2 inhibitors” (Nicox S.A., priority 2002, dated 2010):

Assays:
[1] = Gastric tolerability after two weeks oral treatment in L-NAME hypertensive rats; format: in vivo; settings: 10 mg/kg daily for two weeks, hypertension induced by L-NAME 400 mg/liter in drinking water
Procedure: (§1) The experiment was carried out according to the method described by M. N. Muscarà et al. Br. J. Pharmacol. 133, 1314, 2001, and employing groups of 10 rats weighing each 200-250 g.
(§2) The compounds, suspended in 1% carboxymethylcellulose, were administered orally for two weeks at a daily dose of 10 mg/kg body weight.
(§3) Hypertension was induced by addition of L-NAME (N-omega-nitro-L-arginine methylester) to the drinking water at a concentration of 400 mg/liter. At the end of the treatment, the blood pressure was determined by introduction of a cannula into femoral artery and measurement with polygraphic transducer, 16 hours after the last administration.

[2] = Blood pressure effect after two weeks oral treatment in L-NAME hypertensive rats; format: in vivo; settings: 10 mg/kg daily for two weeks, L-NAME in drinking water, femoral artery cannula, 16 hours after the last administration
Procedure: as §1, §2, §3

| SMILES | gastric tolerability [1] | effect on blood pressure [2] | gastric damage, share of the treated animals [1] | increase of the blood pressure (average) [2] |
| --- | --- | --- | --- | --- |
| Cc1ccc(-c2cc(C(F)(F)F)nn2-c2ccc(S(=O)(=O)NC(=O)CCCO[N+](=O)[O-])cc2)cc1 [Example 4, N-[4-[5-(4-methylphenyl)-3-(trifluoromethyl)-1H-pyrazol-1-yl]phenylsulfonyl]-4-nitrooxy-butanamide] | well tolerated | no increase of the blood pressure |  |  |
| Cc1ccc(-c2cc(C(F)(F)F)nn2-c2ccc(S(N)(=O)=O)cc2)cc1 [celecoxib, 4-[5-(4-methylphenyl)-3-(trifluoromethyl)-1H-pyrazol-1-yl]benzenesulfon-amide] |  |  | 80% | 15 mmHg |
